In paper PMC6736568, “Discovery of Novel Anti-cryptosporidial Activities From Natural Products by in vitro High-Throughput Phenotypic Screening” (Frontiers in Microbiology, 2019):
Where two headings read alike, the source gives them in different places.

Legend:
[1] = tested on: Cryptosporidium parvum; experiment: qRT-PCR assay of the growth of C. parvum in vitro in HCT-8 host cells (primary and secondary screening, EC50); assay type: cell-based; conditions: for Inhibition (%): primary screening at 10 uM
[2] = tested on: HCT-8 host cells (Hs18S)
[3] = primary screening at 10 uM, from Hs18S ΔCT
[4] = primary screening at 10 uM, treated vs control

Structure (SMILES) | Inhibition (%) [1] [%] | Cytotoxicity (%) [2, 3] [%] | Hs18S ΔCT [2, 4] | % Inhibition (3.3 uM) ([1]; secondary screening at 3.3 uM) [%] | Hs18S ΔCT [2] | Cytotoxicity (%) ([2]; 10 µM)
CC(=O)[C@@]1(O)CC[C@H]2[C@@H]3CCC4=CC(=O)CC[C@]4(C)[C@H]3CC[C@@]21C [HYDROXYPROGESTERONE] | -50.17 | 22.7 | 0.37 | – | – | –
COc1ccc2c(=O)c(-c3ccc(O)cc3)coc2c1 [ISOFORMONONETIN] | -7.36 | -21.7 | -0.28 | – | – | –
CC1(C)C=Cc2c(c3c(c4c(=O)c(-c5ccc(O)cc5)coc24)OC(C)(C)CC3)O1 [ISOOSAJIN] | 96.83 | -18.5 | -0.24 | 39 | – | –
C[C@H]1O[C@H](OC2[C@@H](O)[C@@H](O)C(O)[C@H](O)[C@H]2O)[C@@H](N)C[C@@H]1N=C(N)C(=O)O.Cl (some centres unmarked) [KASUGAMYCIN HYDROCHLORIDE] | 47.53 | -1.2 | -0.02 | – | – | –
C=CCSC[C@H](N)C(=O)O [L-DEOXYALLIIN] | 38.80 | -21.9 | -0.29 | – | – | –
CC(=O)NCCc1ccc(O)c(-c2c(O)c(O)c3c(c2O)C(=O)c2c(cc(O)c(C(=O)O)c2C(=O)O)C3=O)c1 [LACCAIC ACID A] | 21.81 | -6.6 | – | – | – | –
O=C(O)[C@H](O)[C@@H](O)[C@H](O[C@@H]1O[C@H](CO)[C@H](O)[C@H](O)[C@H]1O)[C@H](O)CO [LACTOBIONIC ACID] | -17.48 | -27.5 | -0.35 | – | – | –
O.OC[C@H]1O[C@@H](O[C@H]2[C@H](O)[C@@H](O)[C@@H](O)O[C@@H]2CO)[C@H](O)[C@@H](O)[C@H]1O [LACTOSE MONOHYDRATE] | 31.71 | – | 0.02 | – | – | –
C[C@@H]1CC[C@H]2[C@](C)(CO)[C@@H](O)CC[C@]2(C)[C@@]12CC[C@@](CO)(CCO)O2 [LAGOCHILIN] | 9.20 | 34.1 | 0.60 | – | – | –
CC(=O)O[C@H]1CC[C@]2(C)C3=C(CC[C@H]2C1(C)C)[C@]1(C)CC[C@H]([C@H](C)CCC=C(C)C)[C@@]1(C)CC3 [LANOSTEROL ACETATE] | -3.78 | -2.8 | -0.04 | – | – | –
Cc1occc(=O)c1O [LARIXINIC ACID] | 59.78 | 12.9 | 0.20 | – | – | –
C=C[C@@](C)(O)CC[C@H]1C(=C)C[C@H](O)[C@H]2C(C)(C)CCC[C@]12C [LARIXOL] | 31.41 | 2.2 | 0.03 | – | – | –
CC(C)CCC[C@@H](C)[C@H]1CC[C@H]2C3=CC[C@H]4C[C@@H](O)CC[C@]4(C)[C@H]3CC[C@]12C [LATHOSTEROL] | -50.10 | 21.4 | 0.35 | – | – | –
O=C1CCC[C@@H]2[C@H]3C[C@@H](CN12)[C@@H]1CCCCN1C3.[O-][Cl+3]([O-])([O-])O [LUPANINE PERCHLORATE] | 10.49 | -6.1 | -0.09 | – | – | –
C=C(C)[C@@H]1CC[C@]2(C)CC[C@]3(C)[C@H](CC[C@@H]4[C@@]5(C)CC[C@H](OC(C)=O)C(C)(C)[C@@H]5CC[C@]43C)[C@@H]12 [LUPEOL ACETATE] | 25.85 | -12.1 | -0.17 | – | – | –
COc1cc2oc3cc(OC)c(OC)c(CC=C(C)C)c3c(=O)c2c(OC)c1CC=C(C)C [MANGOSTIN TRIMETHYL ETHER] | -8.08 | – | – | – | 0.00 | -0.1
OC[C@H]1O[C@H](OCC2O[C@@H](O)[C@H](O)[C@@H](O)[C@@H]2O)[C@H](O)[C@@H](O)[C@H]1O (some centres unmarked) [MELIBIOSE] | -16.19 | -4.0 | -0.06 | – | – | –
COC(=O)/C(C)=C\C[C@@]12OC(C)(C)[C@@H]3C[C@@H](C=C4C(=O)c5c(OC)c6c(c(CC=C(C)C)c5O[C@]431)O[C@](C)(CCC=C(C)C)C=C6)C2=O [METHYL GAMBOGATE METHYL ETHER] | 23.61 | 22.4 | 0.37 | – | – | –
COC(=O)/C=C/c1cc(OC)c(OC)c(OC)c1 [METHYL TRIMETHOXYCINNAMATE] | -24.35 | 2.8 | 0.04 | – | – | –
C[C@@]1(O)CCOC(=O)C1 [MEVALONIC ACID LACTONE] | 26.69 | 16.5 | 0.26 | – | – | –
COC(=O)C1=CO[C@@H](C)[C@H]2CN3CC[C@]4(C(=O)Nc5ccccc54)[C@@H]3C[C@H]12 [MITRAPHYLLINE] | 41.31 | 11.1 | 0.17 | – | – | –
CCC(C)C(NC)C(=O)O (centres unmarked) [N-METHYLISOLEUCINE] | -3.51 | – | – | – | -0.07 | -5.2
CN1CCC[C@H]1c1cccnc1.O=C(O)C(O)C(O)C(=O)O.O=C(O)C(O)C(O)C(=O)O [NICOTINE BITARTRATE] | 36.71 | -43.3 | -0.52 | – | – | –
